Results from US20250099448A1, “HETEROCYCLIC COMPOUNDS” (Hoffmann-La Roche Inc., priority 2022, published 2025).

Target: T1, MAGL protein (Homo sapiens, UniProt Q99685)
T1 sequence (Q99685 1-303): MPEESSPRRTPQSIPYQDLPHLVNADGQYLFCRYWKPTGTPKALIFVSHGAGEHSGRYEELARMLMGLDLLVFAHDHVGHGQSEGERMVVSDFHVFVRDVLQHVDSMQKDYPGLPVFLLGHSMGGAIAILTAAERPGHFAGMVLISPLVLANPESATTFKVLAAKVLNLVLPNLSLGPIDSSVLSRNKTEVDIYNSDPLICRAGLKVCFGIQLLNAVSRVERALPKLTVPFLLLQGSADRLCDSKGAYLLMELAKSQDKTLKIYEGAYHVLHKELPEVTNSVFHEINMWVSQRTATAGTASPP
Assay: 2-AG assay: MAGL inhibitory activity by hydrolysis of 2-arachidonoylglycerol to arachidonic acid, followed by mass spectrometry
Assay type: biochemical
Conditions: 8 μM 2-arachidonoylglycerol, 15 min preincubation, 30 min reaction at RT, RapidFire MS readout
Summary of the method: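 MAGL was preincubated 15 min at RT with compound (12.5 to […], 3-fold steps) in 50 mM TRIS, 1 mM EDTA, 0.01% Tween-20, 2.5% DMSO. The reaction ran 30 min at RT with 8 μM 2-AG. Arachidonic acid was quantified by RapidFire SPE-MS/MS against a d8-arachidonic acid internal standard.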

Row | IC50 [nM] | Compound
1 | 497 | Cc1cc(C)n(C23CC(C4CN(C(=O)N5CC6(CC(c7nc(C8(O)CC8)n[nH]7)C6)C5)C4)(C2)C3)n1 [compound 712]
2 | 12.6 | O=C(N1CC2(CCC(Cc3ccc(F)cn3)CC2)C1)N1CC2(CC(c3nnc(C4(O)CC4)[nH]3)C2)C1 [compound 145]
3 | 0.64 | O=C(N1CC(c2ccc(N3CC(C(F)(F)F)C3)nc2)C1)N1CC2(CC(c3nnc(C4CC4)[nH]3)C2)C1 [compound 258]
4 | 5.61 | O=C(N1CCC(OCc2ccc(C(F)(F)F)cc2F)CC1)N1CC2(CC(c3nc(C4CC4)n[nH]3)C2)C1 [Example 906, [6-(3-cyclopropyl-1H-1,2,4-triazol-5-yl)-2-azaspiro[3.3]heptan-2-yl]-[4-[2-fluoro-4-(trifluoromethyl)benzyl]oxypiperidino]methanone]
5 | 3.39 | O=C(N1CC(c2ccc(C3(C(F)(F)F)CC3)nc2)C1)N1CC2(CC(c3nnc(C4CC4)[nH]3)C2)C1 [compound 231]
6 | 95.2 | COc1cc(Cl)ccc1CN(C)C1CCN(C(=O)N2CC3(CC(c4nnc(C5CC5)[nH]4)C3)C2)CC1 [Example 893, [4-[(4-chloro-2-methoxy-benzyl)-methyl-amino]piperidino]-[6-(5-cyclopropyl-4H-1,2,4-triazol-3-yl)-2-azaspiro[3.3]heptan-2-yl]methanone]
7 | 10.7 | O=C(N1CC(c2ccc(NC3(C(F)(F)F)CC3)nc2)C1)N1CC2(CC(c3nnc(C4CCC4)[nH]3)C2)C1 [compound 273]
8 | 4970 | O=C(N1CC2(CC(c3ncn[nH]3)C2)C1)N1CC2(CC(c3ccc(C(F)(F)F)cc3F)C2)C1 [compound 982]
9 | 1.61 | O=C(N1CC2(CC(Cc3n[nH]c(C4(C(F)(F)F)CC4)n3)C2)C1)N1CC2(CC(c3nnc(C4CC4)[nH]3)C2)C1 [compound 816]
10 | 568 | N=S(=O)(c1cccc(CC2CC3(C2)CN(C(=O)N2CC4(CC(c5ncn[nH]5)C4)C2)C3)c1)C(F)(F)F (stereo not drawn) [compound 734]
11 | 0.6 | Cn1ncc(CC2CC3(C2)CN(C(=O)N2CC4(CC(c5nc(C6(O)CC6)n[nH]5)C4)C2)C3)c1C(F)(F)F [compound 815]
12 | 2 | O=C(N1CC2(CC(Cn3ccc(C(F)(F)F)n3)C2)C1)N1CC2(CC(c3nc(C4(O)CC4)n[nH]3)C2)C1 [compound 673]
13 | 0.57 | O=C(N1CC2(CC(Cc3ccc(OC(F)(F)F)cn3)C2)C1)N1CC2(CC(c3nnc(C4(O)CC4)[nH]3)C2)C1 [compound 9]
14 | 308 | Cc1c(CN2CC3(C2)CN(C(=O)N2CC4(CC(c5nnc(C6CC6)[nH]5)C4)C2)C3)cnn1C [compound 897]
15 | 20.8 | Cn1nc(CC2CC3(C2)CN(C(=O)N2CC4(CC(c5nc(C6CC(F)(F)C6)n[nH]5)C4)C2)C3)cc1C(F)(F)F [compound 511]
16 | 502 | O=C(O)c1ccccc1CN1CC2(C1)CN(C(=O)N1CC3(CC(c4nnc(C5CC5)[nH]4)C3)C1)C2 [Example 172, 2-[[2-[6-(5-cyclopropyl-4H-1,2,4-triazol-3-yl)-2-azaspiro[3.3]heptane-2-carbonyl]-2,6-diazaspiro[3.3]heptan-6-yl]methyl]benzoic Acid]
17 | 0.18 | O=C(N1CC(c2ccc([C@H]3C[C@H](C(F)F)C3)cc2)C1)N1CC2(CC(c3nnc(C4CC4)[nH]3)C2)C1 (single isomer, unassigned) [Example 304, Trans-[6-(5-Cyclopropyl-4H-1,2,4-triazol-3-yl)-2-azaspiro[3.3]heptan-2-yl]-[3-[4-[3-(difluoromethyl)cyclobutyl]phenyl]azetidin-1-yl]methanone]
18 | 2.22 | CC(C)(C)Cc1nnc(C23CC(C4CN(C(=O)N5CC6(CC(c7nc(C8CC8)n[nH]7)C6)C5)C4)(C2)C3)s1 [compound 581]
19 | 357 | O=C(N1CC2(CC(c3nc(C4CC(F)(F)C4)n[nH]3)C2)C1)N1CC2(CN(Cc3ncc(C(F)(F)F)s3)C2)C1 [compound 596]
20 | 25.3 | O=C(N1CC2(CC(c3nc(C4CC4)n[nH]3)C2)C1)N1CC2(CN(Cc3cc(C4CC4)n[nH]3)C2)C1 [compound 900]
21 | 1.01 | O=C(N1CC2(CC(Cc3ccc(S(=O)(=O)C(F)(F)F)cn3)C2)C1)N1CC2(CC(c3nc(C4(O)CC4)n[nH]3)C2)C1 [compound 616]
22 | 38.4 | O=C(N1CC2(CC(c3ccc(C(F)(F)F)nc3)C2)C1)N1CC2(CC(c3nc(C4(O)CC4)n[nH]3)C2)C1 [compound 829]
23 | 0.2 | CS(=O)(=O)c1cc(Cl)ccc1C12CC(C3CN(C(=O)N4CC5(CC(c6nnc(C7CC7)[nH]6)C5)C4)C3)(C1)C2 [compound 562]
24 | 55.9 | O=C(N1CC2(CC(c3nc(C4CC4)n[nH]3)C2)C1)N1CC2(CN(Cc3nccn3CC(F)(F)F)C2)C1 [compound 698]
25 | 11.7 | O=C(N1CC2(CC(c3nnc(C4CC4)[nH]3)C2)C1)N1CC2(CC(S(=O)(=O)c3ccc(F)cc3Cl)C2)C1 [compound 356]
26 | 1.17 | O=C(N1CC2(CC(Cn3nccc3C(F)(F)F)C2)C1)N1CC2(CC(c3nc(C4(O)CC4)n[nH]3)C2)C1 [compound 796]

Continued, compound first:

Row | Compound | IC50 [nM]
27 | O=C(N1CC(OCc2ccc(C(F)(F)F)cc2F)C1)N1CC2(CC(c3nnc(C4CC4)[nH]3)C2)C1 [compound 311] | 2.35
28 | O=C(N1CC(C23CC(c4ccc(OC(F)(F)F)cc4)(C2)C3)C1)N1CC2(CC(c3nc(C4CC4)n[nH]3)C2)C1 [compound 490] | 0.05
29 | O=C(N1CC(CNS(=O)(=O)c2ccc(C(F)(F)F)cc2)C1)N1CC2(CC(c3nnc(C4(O)CC4)[nH]3)C2)C1 [compound 210] | 482
30 | O=C(N1CC2(CCC(OCC3(C(F)(F)F)CC3)CC2)C1)N1CC2(CC(c3nnc(C4CC4)[nH]3)C2)C1 [compound 65] | 1.46
31 | CC(C)(C)c1conc1CN1CC2(C1)CN(C(=O)N1CC3(CC(c4nc(C5CC5)n[nH]4)C3)C1)C2 [compound 591] | 3.64
32 | O=C(N1CC(C23CC(c4cc(C5CC5)n[nH]4)(C2)C3)C1)N1CC2(CC(c3nc(C4CC(F)(F)C4)n[nH]3)C2)C1 [compound 702] | 255
33 | O=C(N1CC2(CC(c3nnc(C4CC4)[nH]3)C2)C1)N1CC2(C1)CN(c1cnc(C(F)(F)F)cn1)C2 [compound 218] | 172
34 | NC(=O)[C@H]1CCCN1c1ccc(C2CN(C(=O)N3CC4(CC(c5nnc(C6CC6)[nH]5)C4)C3)C2)cc1 [Example 398, (2R)-1 [4-[1-[6-(5-cyclopropyl-4H-1,2,4-triazol-3-yl)-2-azaspiro[3.3]heptane-2-carbonyl]azetidin-3-yl]phenyl]pyrrolidine-2-carboxamide] | 2.4
35 | O=C(N1CC2(CC(Cc3cc(C4CC4)n[nH]3)C2)C1)N1CC2(CC(c3nc(C4CC4)n[nH]3)C2)C1 [compound 644] | 0.22
36 | O=C(N1CC(OCc2ccc(S(=O)(=O)C(F)(F)F)cc2F)C1)N1CC2(CC(c3nnc(C4CC4)[nH]3)C2)C1 [compound 309] | 2.2
37 | O=C(N1CC(C23CC(NCC4(C(F)(F)F)CC4)(C2)C3)C1)N1CC2(CC(c3nc(C4(O)CC4)n[nH]3)C2)C1 [compound 825] | 4.37
38 | O=C(N1CC(c2ccc(C3(C(F)(F)F)CC3)cc2)C1)N1CC2(CC(c3ncn[nH]3)C2)C1 [compound 635] | 950
39 | O=C(N1CC2(CC(c3nc(C4CC4)n[nH]3)C2)C1)N1CC2(CN(Cc3cnn(C(F)F)c3)C2)C1 [compound 628] | 149
40 | O=C(N1CC2(CC(Cc3cnc(C(F)(F)F)cn3)C2)C1)N1CC2(CC(c3nnc(C4CC4)[nH]3)C2)C1 [Example 3] | 0.69
41 | Cc1cc(C(C)(C)C)nn1-c1ccc(C2CN(C(=O)N3CC4(CC(c5nnc(C6CC6)[nH]5)C4)C3)C2)cc1 [compound 277] | 0.17
42 | N#Cc1cc(CC2CC3(C2)CN(C(=O)N2CC4(CC(c5nnc(C6(O)CC6)[nH]5)C4)C2)C3)ccc1C(F)(F)F [compound 27] | 0.11
43 | O=C(N1CC2(CC(c3nnc(C4CC4)[nH]3)C2)C1)N1CC2(CN(Cc3cc(F)cc(F)c3)C2)C1 [compound 159] | 6.08
44 | O=C(N1CC2(CC(Cc3cc(C(F)(F)F)nn3CC(F)(F)F)C2)C1)N1CC2(CC(c3nc(C4CC4)n[nH]3)C2)C1 [compound 679] | 0.15
45 | O=C(N1CC(C2CN(Cc3ccc(C(F)(F)F)cc3)C2)C1)N1CC2(CC(c3nnc(C4CC4)[nH]3)C2)C1 [compound 360] | 32
46 | N=S(=O)(c1ccc(CC2CC3(C2)CN(C(=O)N2CC4(CC(c5nc(C6COC6)n[nH]5)C4)C2)C3)cc1)C(F)(F)F (stereo not drawn) [compound 782] | 17.8
47 | CS(=O)(=O)c1cc(F)ccc1CC1CC2(C1)CN(C(=O)N1CC3(CC(c4nnc(C5CC5)[nH]4)C3)C1)C2 [compound 24] | 0.7
48 | O=C(N1CC(OCC2(C(F)(F)F)CC2)C1)N1CC2(CC(c3nnc(C4CC4)[nH]3)C2)C1 [compound 331] | 109
49 | Cc1nc(C)c(CN2CC3(C2)CN(C(=O)N2CC4(CC(c5nnc(C6CC6)[nH]5)C4)C2)C3)o1 [compound 898] | 218
50 | O=C(N1CC2(CC(Cc3cc(C4(C(F)(F)F)CC4)[nH]n3)C2)C1)N1CC2(CC(c3nc(C4CC4)n[nH]3)C2)C1 [compound 945] | 0.07
51 | O=C(N1CC2(CC(Cc3cncc(Cl)c3)C2)C1)N1CC2(CC(c3nnc(C4CC4)[nH]3)C2)C1 [compound 113] | 0.09
52 | O=C(N1CC2(CC(Cc3cnc(C(F)(F)F)cn3)C2)C1)N1CC2(CC(c3nc(C4COC4)n[nH]3)C2)C1 [compound 761] | 147
53 | CS(=O)(=O)c1ccc(CC2CC3(C2)CN(C(=O)N2CC4(CC(c5nnc(C6CC6)[nH]5)C4)C2)C3)c(F)c1 [compound 130] | 0.09
54 | O=C(N1CC2(CC(Cc3ccc4[nH]ncc4n3)C2)C1)N1CC2(CC(c3nc(C4(O)CC4)n[nH]3)C2)C1 [compound 692] | 20.1
